Several values for one entry are separate records, joined by “and”; a condition that tells them apart may be missing. Identical values can stand only once.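 Test compounds were applied to cells in 96-well plates for 48 hours at 5 doses. Abbreviation: GI50, concentration required for 50% inhibition of growth.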 Activity calls are given as the source filed them. Rule as the data show it: active = GI50 up to about 1.1 µM and inactive = higher.
How the values were obtained:
Assay in all cases: NCI anticancer screen, dose series, 48 h
CAKI-1 = system: CAKI-1
CCRF-CEM = system: CCRF-CEM
DU-145 = system: DU-145
HCC 2998 = system: HCC 2998
KM12 = system: KM12
M14 = system: M14
MCF7 = system: MCF7
MDA-MB-231 = system: MDA-MB-231
MDA-MB-435 = system: MDA-MB-435
SR = system: SR
SW-620 = system: SW-620
U-251 = system: U-251
ACHN = system: ACHN
NCI-H23 = system: NCI-H23
RPMI-8226 = system: RPMI-8226
SF-295 = system: SF-295
SF-539 = system: SF-539
SK-OV-3 = system: SK-OV-3
UACC-62 = system: UACC-62
RXF 393 = system: RXF 393

SMILES	GI50 (CAKI-1)	GI50 (CCRF-CEM)	GI50 (DU-145)	GI50 (HCC 2998)	GI50 (KM12)	GI50 (M14)	GI50 (MCF7)	GI50 (MDA-MB-231)	GI50 (MDA-MB-435)	GI50 (SR)	GI50 (SW-620)	GI50 (U-251)	GI50 (ACHN)	GI50 (NCI-H23)	GI50 (RPMI-8226)	GI50 (SF-295)	GI50 (SF-539)	GI50 (SK-OV-3)	GI50 (UACC-62)	GI50 (RXF 393)
COc1ccc(-c2nc(SC)n(C3OC(COC(C)=O)C(OC(C)=O)C(OC(C)=O)C3OC(C)=O)c(=O)c2C#N)cc1 (centres undefined)	> 100 µM (inactive)	> 100 µM (inactive)	> 100 µM (inactive)	> 100 µM (inactive)	> 100 µM (inactive)	58.1 µM (inactive)	> 100 µM (inactive)	> 100 µM (inactive)	> 100 µM (inactive)	> 100 µM (inactive)	> 100 µM (inactive)	34.7 µM (inactive) and 39.5 µM (inactive)	–	–	–	–	–	–	–	–
Cc1ccc(CC2(OCCN(C)C)CCC(C(C)(C)C)CC2)cc1 (centres undefined)	4.99 µM (inactive)	2.41 µM (inactive)	3.78 µM (inactive)	1.98 µM (inactive)	3.62 µM (inactive)	1.79 µM (inactive)	2.43 µM (inactive)	6.01 µM (inactive)	2.37 µM (inactive)	2.04 µM (inactive)	2.25 µM (inactive)	2.34 µM (inactive)	6.87 µM (inactive)	10.7 µM (inactive)	1.84 µM (inactive)	5.22 µM (inactive)	1.81 µM (inactive)	8.17 µM (inactive)	2.15 µM (inactive)	–
N#CC1(C#N)NC(c2ccccc2)C(C#N)(C#N)NC1c1ccccc1 (centres undefined)	6.59 µM (inactive)	> 100 µM (inactive)	> 100 µM (inactive)	> 100 µM (inactive)	> 100 µM (inactive)	> 100 µM (inactive)	> 100 µM (inactive)	25.9 µM (inactive)	> 100 µM (inactive)	–	> 100 µM (inactive)	> 100 µM (inactive)	> 100 µM (inactive)	> 100 µM (inactive)	> 100 µM (inactive)	> 100 µM (inactive)	> 100 µM (inactive)	> 100 µM (inactive)	> 100 µM (inactive)	> 100 µM (inactive)
COc1ccc2c(c1)OCc1c-2oc2ccccc2c1=O	> 100 µM (inactive)	> 100 µM (inactive)	> 100 µM (inactive)	> 100 µM (inactive)	> 100 µM (inactive)	> 100 µM (inactive)	> 100 µM (inactive)	30.1 µM (inactive)	> 100 µM (inactive)	> 100 µM (inactive)	–	35.8 µM (inactive)	61.1 µM (inactive)	0.0895 µM (active)	> 100 µM (inactive)	52.7 µM (inactive)	40.1 µM (inactive)	47.5 µM (inactive)	> 100 µM (inactive)	–
c1ccc(C(NC2CCCCC2NCCNC2CCCCC2NC(c2ccccc2)(c2ccccc2)c2ccccc2)(c2ccccc2)c2ccccc2)cc1 (centres undefined)	64.4 µM (inactive)	42.4 µM (inactive)	96.6 µM (inactive)	> 10 µM (inactive)	57.1 µM (inactive)	–	17.7 µM (inactive)	> 100 µM (inactive)	17.7 µM (inactive)	81.7 µM (inactive)	22.6 µM (inactive)	13.9 µM (inactive)	90.2 µM (inactive)	20.9 µM (inactive)	7.8 µM (inactive)	> 100 µM (inactive)	44 µM (inactive)	17.8 µM (inactive)	26.2 µM (inactive)	–
CCCCCC/C=C\CCCCCCCCCc1c(O)c(OC)cc(O)c1CN(C)C	13.8 µM (inactive)	0.887 µM (active)	17.9 µM (inactive)	–	3.34 µM (inactive)	11.4 µM (inactive)	2.55 µM (inactive)	14.5 µM (inactive)	6.64 µM (inactive)	0.692 µM (active)	2.93 µM (inactive)	3.73 µM (inactive)	10.7 µM (inactive)	8.61 µM (inactive)	2.44 µM (inactive)	5.38 µM (inactive)	5.3 µM (inactive)	14.9 µM (inactive)	10.6 µM (inactive)	–
Nc1ccc(Nc2cc(=O)[nH]c(=O)[nH]2)cc1Cl	> 100 µM (inactive)	> 100 µM (inactive)	> 100 µM (inactive)	> 100 µM (inactive)	–	> 100 µM (inactive)	> 100 µM (inactive)	> 100 µM (inactive)	> 100 µM (inactive)	> 100 µM (inactive)	> 100 µM (inactive)	> 100 µM (inactive)	> 100 µM (inactive)	> 100 µM (inactive)	> 100 µM (inactive)	> 100 µM (inactive)	> 100 µM (inactive)	> 100 µM (inactive)	> 100 µM (inactive)	–
Cc1cc(N(C)C)ccc1/N=N/c1ccc2ncccc2c1	> 100 µM (inactive)	40 µM (inactive)	> 100 µM (inactive)	–	66.7 µM (inactive)	> 100 µM (inactive)	20.3 µM (inactive)	84.1 µM (inactive)	> 100 µM (inactive)	44.4 µM (inactive)	> 100 µM (inactive)	> 100 µM (inactive)	> 100 µM (inactive)	59.3 µM (inactive)	20.2 µM (inactive)	> 100 µM (inactive)	> 100 µM (inactive)	> 100 µM (inactive)	> 100 µM (inactive)	> 100 µM (inactive)
FC(F)(F)C1(C(F)(F)F)OC(Cl)(Cl)C(Cl)(Cl)O1	> 10 µM (inactive)	–	> 10 µM (inactive)	> 10 µM (inactive)	> 10 µM (inactive)	> 10 µM (inactive)	> 10 µM (inactive)	> 10 µM (inactive)	> 10 µM (inactive)	–	> 10 µM (inactive)	> 10 µM (inactive)	> 10 µM (inactive)	> 10 µM (inactive)	–	> 10 µM (inactive)	> 10 µM (inactive)	> 10 µM (inactive)	> 10 µM (inactive)	> 10 µM (inactive)
CCOP(=O)(OCC)C(Cc1ccc(Cl)cc1)NS(=O)(=O)c1ccc(C)cc1 (centres undefined)	> 100 µM (inactive)	> 100 µM (inactive)	> 100 µM (inactive)	> 100 µM (inactive)	> 100 µM (inactive)	> 100 µM (inactive)	> 100 µM (inactive)	> 100 µM (inactive)	> 100 µM (inactive)	–	> 100 µM (inactive)	> 100 µM (inactive)	> 100 µM (inactive)	> 100 µM (inactive)	98.9 µM (inactive)	> 100 µM (inactive)	> 100 µM (inactive)	> 100 µM (inactive)	> 100 µM (inactive)	> 100 µM (inactive)
O=c1c2ccc(S(=O)(=O)c3ccc4c(=O)n5c6ccccc6nc5c5cccc3c45)c3cccc(c32)c2nc3ccccc3n12	> 100 µM (inactive)	–	59.6 µM (inactive)	> 100 µM (inactive)	> 100 µM (inactive)	> 100 µM (inactive)	> 100 µM (inactive)	19.4 µM (inactive)	> 100 µM (inactive)	–	–	9.06 µM (inactive)	15.2 µM (inactive)	96.6 µM (inactive)	> 100 µM (inactive)	15.3 µM (inactive)	28.7 µM (inactive)	5.26 µM (inactive)	45.5 µM (inactive)	14.3 µM (inactive)

Reference: ChEMBL document CHEMBL1201862, “PubChem BioAssay data set” (2004)
